What was measured:
PC12 cells [1] = test: Addition of rhIL-1β to PC12 cultures in the presence of NGF, insulin or serum; type: cell-based; details: 1 μg/ml
Method: (§1) PC12 cells were grown as previously described (Greene and Tishcler, 1976) on rat-tail collagen-coated dishes in RPMI 1640 medium containing 5% fetal calf serum and 10% heat-inactivated horse serum (complete medium). NGF primed PC12 cells were grown for at least 7 days in RPMI 1640 medium plus 1% horse serum and NGF (100 ng/ml). For cell survival assays involving trophic factor deprivation, cells (either naive or NGF-pretreated) were extensively washed in serum-free RPMI 1640 medium and re-plated on fresh collagen-coated 24-well dishes as previously described (Rukenstein et al., 1991) in RPMI 1640 medium lacking serum or NGF. For SOD1 down-regulation survival assays, cells were re-plated in complete medium with V-ASOD1 (vector linked antisense oligonucleotide to SOD1, 50 nM). Various concentrations of ICE inhibitors were included in the medium as indicated. Numbers of viable cells per culture were determined by quantifying intact nuclei as previously described (Rukenstein et al., 1991). Counts were performed in triplicate and reported as means±SEM.

PC12 cells [2] = test: PC12 cell survival after SOD1 down-regulation by V-ASOD1; type: cell-based, rat
Method: as §1

IL-1β: recombinant human IL-1β provided by the NCI
cell death on addition to PC12 cultures (PC12 cells [1]): did not produce cell death | effect of exogenous IL-1β on V-ASOD1 induced death (PC12 cells [2]; IL-1β 1 μg/ml with V-ASOD1 50 nM): potentiates the cell death | effect of exogenous IL-1β on protection by V-ICEinh (PC12 cells [2]; IL-1β 1 μg/ml, V-ASOD1 50 nM, V-ICEinh 25 nM): abrogates the protection | effect of exogenous IL-1β alone on cell death (PC12 cells [2]; IL-1β 1 μg/ml, no V-ASOD1): no effect
